Assay results as given in patent US11338007B2, “Combination formulation of three antiviral compounds” (priority 2016, dated 2022).

Experiments:
[1] = tested on: HCV RNA; assay: Emax PK/PD modeling of sofosbuvir dose (HCV RNA change from baseline); type: in vivo, human; details: mean major metabolite AUCtau for 400 mg dose
Procedure: The sofosbuvir dose selected for the tablet formulation is 400 mg once daily. Support for the 400 mg sofosbuvir dose can be derived from Emax PK/PD modeling with early virological and human exposure data which also supports the selection of a 400 mg sofosbuvir dose over others tested.
The mean sofosbuvir major metabolite AUCtau for the 400 mg sofosbuvir dose is associated with approximately 77% of the maximal HCV RNA change from baseline achievable as determined by this model, a value which is on the cusp of the plateau of the exposure-response sigmoidal curve. In a sigmoidal Emax model, there is a relatively linear exposure-response relationship in the 20 to 80% maximal effect range. Therefore, given that sofosbuvir exposure with 200 mg tablets appears dose-proportional with single doses up to 1200 mg, doses below 400 mg are expected to yield considerable reductions in the magnitude of HCV RNA change from baseline.

[2] = tested on: genotype 2 or 3 HCV; assay: SVR in HCV infected patients given sofosbuvir plus other HCV therapeutics; type: in vivo, human; details: 400 mg once daily plus other HCV therapeutics; genotype 2 or 3 HCV infected patients
Procedure: Safety and tolerability appeared similar across both dose levels. In addition, when sofosbuvir 400 mg once daily plus other HCV therapeutics were given to genotype 2 or 3 HCV infected patients, 100% SVR24 was observed.

[3] = Stress studies: stability of tablets made with stressed VEL SSD/VOX SSD (water, residual solvent, peroxide, reprocessing, potency; Tables 16-21); type: physicochemical; details: for LS / Total Imp./Deg.: SSD water content study
Procedure: The impact of the following stressors on the physical and chemical stability of the sofosbuvir/velpatasvir SSD/voxilaprevir SSD tablets were evaluated:
(i) Voxilaprevir SSD and velpatasvir SSD, and sofosbuvir/velpatasvir SSD/voxilaprevir SSD tablet water content;
(ii) Copovidone peroxide content in velpatasvir SSD and in voxilaprevir SSD (iii) Reprocessed velpatasvir SSD and voxilaprevir SSD;
(iv) Voxilaprevir SSD and velpatasvir SSD potency (varying the ratio of velpatasvir or voxilaprevir to copovidone); and
(v) Seeding sofosbuvir/velpatasvir SSD/voxilaprevir SSD tablets with crystalline voxilaprevir Form VIII and Form X drug substances.

[4] = Photostability of tablet cores and film-coated tablets per ICH Q1B (Table 12); type: physicochemical
Procedure: Tablet cores and film-coated tablets were evaluated per ICH Q1B guidelines with a total of illumination of more than 1.2 million-lux hours and a total irradiance of more than 200 W·hr/m^2.

[5] = BCS classification and pH dependence of solubility; type: physicochemical
[6] = open (no desiccant), 40° C./75% RH, 4 weeks
[7] = tablets from SSDs with copovidone peroxides 544 ppm (VEL SSD), 655 ppm (VOX SSD), Initial, time 0
[8] = tablets from SSDs with copovidone peroxides 544 ppm (VEL SSD), 655 ppm (VOX SSD), closed, 1 g desiccant, 25° C./60% RH, 12 weeks
[9] = tablets from SSDs with copovidone peroxides 544 ppm (VEL SSD), 655 ppm (VOX SSD), closed, 1 g desiccant, 40° C./75% RH, 4 weeks
[10] = tablets from SSDs with copovidone peroxides 544 ppm (VEL SSD), 655 ppm (VOX SSD), closed, 1 g desiccant, 40° C./75% RH, 12 weeks
[11] = tablets from SSDs with copovidone peroxides 544 ppm (VEL SSD), 655 ppm (VOX SSD), open, no desiccant, 40° C./75% RH, 4 weeks
[12] = tablets from VEL SSD 6.0% residual ethanol, VOX SSD 2.1% residual acetone, Initial, time 0
[13] = tablets from VEL SSD 6.0% residual ethanol, VOX SSD 2.1% residual acetone, closed, 1 g desiccant, 25° C./60% RH, 12 weeks
[14] = tablets from VEL SSD 6.0% residual ethanol, VOX SSD 2.1% residual acetone, closed, 1 g desiccant, 40° C./75% RH, 4 weeks
[15] = tablets from VEL SSD 6.0% residual ethanol, VOX SSD 2.1% residual acetone, closed, 1 g desiccant, 40° C./75% RH, 12 weeks
[16] = tablets from VEL SSD 6.0% residual ethanol, VOX SSD 2.1% residual acetone, open, no desiccant, 40° C./75% RH, 4 weeks
[17] = tablets from VEL SSD 7.0% water, VOX SSD 3.2% water, Initial, time 0
[18] = tablets from VEL SSD 7.0% water, VOX SSD 3.2% water, closed, 1 g desiccant, 25° C./60% RH, 12 weeks
[19] = tablets from VEL SSD 7.0% water, VOX SSD 3.2% water, closed, 1 g desiccant, 40° C./75% RH, 4 weeks
[20] = tablets from VEL SSD 7.0% water, VOX SSD 3.2% water, closed, 1 g desiccant, 40° C./75% RH, 12 weeks
[21] = tablets from twice reprocessed VEL SSD and VOX SSD, Initial, time 0
[22] = tablets from twice reprocessed VEL SSD and VOX SSD, closed, 1 g desiccant, 25° C./60% RH, 12 weeks
[23] = tablets from twice reprocessed VEL SSD and VOX SSD, closed, 1 g desiccant, 40° C./75% RH, 4 weeks
[24] = tablets from twice reprocessed VEL SSD and VOX SSD, closed, 1 g desiccant, 40° C./75% RH, 12 weeks
[25] = tablets from twice reprocessed VEL SSD and VOX SSD, open, no desiccant, 40° C./75% RH, 4 weeks
[26] = film-coating 0% weight gain, Exposed to Light
[27] = film-coating 2.1% weight gain, Exposed to Light
[28] = film-coating 2.1% weight gain, Protected from Light
[29] = film-coating 3.4% weight gain, Exposed to Light
[30] = film-coating 3.4% weight gain, Protected from Light
[31] = film-coating 4.1% weight gain, Exposed to Light
[32] = film-coating 4.1% weight gain, Protected from Light
[33] = film-coating 5.4% weight gain, Protected from Light

## CC(C)OC(=O)C(C)N[P@](=O)(OC[C@H]1O[C@@H](n2ccc(=O)[nH]c2=O)[C@](C)(F)[C@@H]1O)Oc1ccccc1 (stereo in doubt) [sofosbuvir, (S)-isopropyl 2-(((S)-(((2R,3R,4R,5R)-5-(2,4-dioxo-3,4-dihydropyrimidin-1(2H)-yl)-4-fluoro-3-hydroxy-4-methyltetrahydrofuran-2-yl)methoxy)(phenoxy)phosphoryl)amino)propanoate]
[1]
  maximal HCV RNA change from baseline achievable (Emax model): approximately 77%
[2]
  SVR24: 100%
[3]; SSD potency study, tablet Lots A-D, all conditions
  total impurities/degradation products: 0.0%
[3]; Initial
  LS: 100.5%
  Total Imp./Deg.: 0.0%
[3]; [6]
  LS: 101.2%
  Total Imp./Deg.: 0.0%
[3]; tablets Lot A (super-potent VEL SSD, super-potent VOX SSD), Initial, time 0
  LS (%): 100.1%
[3]; tablets Lot A (super-potent VEL SSD, super-potent VOX SSD), closed, 1 g desiccant, 25° C./60% RH, 12 weeks
  LS (%): 99.0%
[3]; tablets Lot A (super-potent VEL SSD, super-potent VOX SSD), closed, 1 g desiccant, 40° C./75% RH, 4 weeks
  LS (%): 99.9%
[3]; tablets Lot A (super-potent VEL SSD, super-potent VOX SSD), closed, 1 g desiccant, 40° C./75% RH, 12 weeks
  LS (%): 99.8%
[3]; tablets Lot A (super-potent VEL SSD, super-potent VOX SSD), open, without cap, 40° C./75% RH, 4 weeks
  LS (%): 100.3%
[3]; tablets Lot B (sub-potent VEL SSD, sub-potent VOX SSD), Initial, time 0
  LS (%): 99.9%
[3]; tablets Lot B (sub-potent VEL SSD, sub-potent VOX SSD), closed, 1 g desiccant, 25° C./60% RH, 12 weeks
  LS (%): 99.4%
[3]; tablets Lot B (sub-potent VEL SSD, sub-potent VOX SSD), closed, 1 g desiccant, 40° C./75% RH, 4 weeks
  LS (%): 99.8%
[3]; tablets Lot B (sub-potent VEL SSD, sub-potent VOX SSD), closed, 1 g desiccant, 40° C./75% RH, 12 weeks
  LS (%): 98.7%
[3]; tablets Lot B (sub-potent VEL SSD, sub-potent VOX SSD), open, without cap, 40° C./75% RH, 4 weeks
  LS (%): 100.1%
[3]; tablets Lot C (sub-potent VEL SSD, super-potent VOX SSD), Initial, time 0
  LS (%): 99.5%
[3]; tablets Lot C (sub-potent VEL SSD, super-potent VOX SSD), closed, 1 g desiccant, 25° C./60% RH, 12 weeks
  LS (%): 99.6%
[3]; tablets Lot C (sub-potent VEL SSD, super-potent VOX SSD), closed, 1 g desiccant, 40° C./75% RH, 4 weeks
  LS (%): 99.6%
[3]; tablets Lot C (sub-potent VEL SSD, super-potent VOX SSD), closed, 1 g desiccant, 40° C./75% RH, 12 weeks
  LS (%): 99.1%
[3]; tablets Lot C (sub-potent VEL SSD, super-potent VOX SSD), open, without cap, 40° C./75% RH, 4 weeks
  LS (%): 99.4%
[3]; tablets Lot D (super-potent VEL SSD, sub-potent VOX SSD), Initial, time 0
  LS (%): 100.0%
[3]; tablets Lot D (super-potent VEL SSD, sub-potent VOX SSD), closed, 1 g desiccant, 25° C./60% RH, 12 weeks
  LS (%): 99.5%
[3]; tablets Lot D (super-potent VEL SSD, sub-potent VOX SSD), closed, 1 g desiccant, 40° C./75% RH, 4 weeks
  LS (%): 100.1%
[3]; tablets Lot D (super-potent VEL SSD, sub-potent VOX SSD), closed, 1 g desiccant, 40° C./75% RH, 12 weeks
  LS (%): 98.9%
[3]; tablets Lot D (super-potent VEL SSD, sub-potent VOX SSD), open, without cap, 40° C./75% RH, 4 weeks
  LS (%): 99.8%
[3]; tablets from SSDs with copovidone 544 ppm (VEL SSD) and 655 ppm (VOX SSD) peroxides
  total impurities/degradation products: 0.0%
[3]; [7]
  LS (%): 100.0%
  Total Imp./Deg. (%): 0.0%
[3]; [8]
  LS (%): 99.3%
  Total Imp./Deg. (%): 0.0%
[3]; [9]
  LS (%): 99.3%
  Total Imp./Deg. (%): 0.0%
[3]; [10]
  LS (%): 98.9%
  Total Imp./Deg. (%): 0.0%
[3]; [11]
  LS (%): 100.3%
  Total Imp./Deg. (%): 0.0%
[3]; tablets from VEL SSD 6.0% residual ethanol and VOX SSD 2.1% residual acetone, all conditions
  total impurities/degradation products: 0.0%
[3]; [12]
  LS (%): 101.2%
  Total Imp./Deg. (%): 0.0%
[3]; [13]
  LS (%): 100.5%
  Total Imp./Deg. (%): 0.0%
[3]; [14]
  LS (%): 101.5%
  Total Imp./Deg. (%): 0.0%
[3]; [15]
  LS (%): 100.9%
  Total Imp./Deg. (%): 0.0%
[3]; [16]
  LS (%): 100.9%
  Total Imp./Deg. (%): 0.0%
[3]; tablets from VEL SSD 7.0% and VOX SSD 3.2% water content, all conditions
  total impurities/degradation products: 0.0%
[3]; [17]
  LS (%): 100.5%
  Total Imp./Deg. (%): 0.0%
[3]; [18]
  LS (%): 99.9%
  Total Imp./Deg. (%): 0.0%
[3]; [19]
  LS (%): 101.6%
  Total Imp./Deg. (%): 0.0%
[3]; [20]
  LS (%): 100.4%
  Total Imp./Deg. (%): 0.0%
[3]; [21]
  LS (%): 100.7%
  Total Imp./Deg. (%): 0.0%
[3]; tablets from twice reprocessed VEL SSD and VOX SSD, all conditions
  total impurities/degradation products: 0.0%
[3]; [22]
  LS (%): 99.9%
  Total Imp./Deg. (%): 0.0%
[3]; [23]
  LS (%): 100.3%
  Total Imp./Deg. (%): 0.0%
[3]; [24]
  LS (%): 99.1%
  Total Imp./Deg. (%): 0.0%
[3]; [25]
  LS (%): 96.4%
  Total Imp./Deg. (%): 0.0%
[4]; [26]
  LS: 101.5%
  Total Imp./Deg. Products: 0.0%
[4]; film-coating 0% weight gain, Protected from Light
  Total Imp./Deg. Products: 0.0%
[4]; [27]
  LS: 101.7%
  Total Imp./Deg. Products: 0.0%
[4]; [28]
  LS: 101.2%
  Total Imp./Deg. Products: 0.0%
[4]; [29]
  LS: 100.6%
  Total Imp./Deg. Products: 0.0%
[4]; [30]
  LS: 101.8%
  Total Imp./Deg. Products: 0.0%
[4]; [31]
  LS: 102.0%
  Total Imp./Deg. Products: 0.0%
[4]; [32]
  LS: 101.2%
  Total Imp./Deg. Products: 0.0%
[4]; film-coating 5.4% weight gain, Exposed to Light
  Total Imp./Deg. Products: 0.0%
[4]; [33]
  LS: 101.0%
  Total Imp./Deg. Products: 0.0%
[4]; tablets film-coated to weight gains 2.1 to 5.4%
  level of degradation products: 0.0%
[4]; uncoated tablet cores
  loss after exposure to light: no change
[5]
  BCS Class: BCS Class 3
  aqueous solubility, pH dependence: high and pH-independent
